From patent US20260028326A1, “COMPOUND BASED ON ISOINDOLINE-SUBSTITUTED GLUTARIMIDE BACKBONE AND USE THEREOF” (GLUETACS THERAPEUTICS (SHANGHAI) CO., LTD., priority 2022, published 2026)

Tests used:
[1] = biological target: human Cereblon WT GST-tagged protein (Homo sapiens (Human), UniProt Q96SW2); assay: CRBN-binding affinity, HTRF (CEREBLON BINDING kit)
Outline: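 GST-tagged human WT Cereblon incubated with compound, then Thalidomide-Re tracer and anti-GST Eu antibody added. Displacement read by HTRF, reported as CRBN binding inhibition rate against blank control wells without protein.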

[2] = tested on: Mino cells; assay: Tumor cell proliferation IC50 (CCK-8), Mino; details: Homo sapiens, 72 h, read-out: IC50 for inhibiting the proliferation of tumor cells, Mino;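 further: cell viability assessed with CCK-8 reagent after compound exposure, IC50 derived from plotted growth inhibition curves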
[3] = biological target: IKZF1 protein (Homo sapiens (Human), UniProt Q13422+Q96SW2); assay: Western-blot assay of substrate protein degradation in hPBMC, IKZF1; type: cell-based; details: for residual substrate protein level, IKZF1: hPBMC cells, compound 500 nM, 24 hours, Western blot
Sequence of IKZF1 protein (Q13422 whole entry): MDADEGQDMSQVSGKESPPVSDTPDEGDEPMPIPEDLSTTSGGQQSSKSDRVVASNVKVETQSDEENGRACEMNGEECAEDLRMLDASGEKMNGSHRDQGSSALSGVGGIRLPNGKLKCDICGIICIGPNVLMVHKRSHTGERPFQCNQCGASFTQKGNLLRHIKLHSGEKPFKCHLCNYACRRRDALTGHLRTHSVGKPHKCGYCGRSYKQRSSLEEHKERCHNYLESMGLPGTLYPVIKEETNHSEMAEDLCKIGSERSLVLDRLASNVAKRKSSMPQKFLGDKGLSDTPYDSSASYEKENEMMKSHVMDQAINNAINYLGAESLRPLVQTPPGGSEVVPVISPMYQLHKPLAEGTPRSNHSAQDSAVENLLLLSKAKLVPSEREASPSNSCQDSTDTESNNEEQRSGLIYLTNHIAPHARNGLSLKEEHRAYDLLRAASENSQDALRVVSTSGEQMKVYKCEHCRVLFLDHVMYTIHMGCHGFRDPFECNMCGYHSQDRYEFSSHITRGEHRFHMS
Sequence of IKZF1 protein (Q96SW2 whole entry): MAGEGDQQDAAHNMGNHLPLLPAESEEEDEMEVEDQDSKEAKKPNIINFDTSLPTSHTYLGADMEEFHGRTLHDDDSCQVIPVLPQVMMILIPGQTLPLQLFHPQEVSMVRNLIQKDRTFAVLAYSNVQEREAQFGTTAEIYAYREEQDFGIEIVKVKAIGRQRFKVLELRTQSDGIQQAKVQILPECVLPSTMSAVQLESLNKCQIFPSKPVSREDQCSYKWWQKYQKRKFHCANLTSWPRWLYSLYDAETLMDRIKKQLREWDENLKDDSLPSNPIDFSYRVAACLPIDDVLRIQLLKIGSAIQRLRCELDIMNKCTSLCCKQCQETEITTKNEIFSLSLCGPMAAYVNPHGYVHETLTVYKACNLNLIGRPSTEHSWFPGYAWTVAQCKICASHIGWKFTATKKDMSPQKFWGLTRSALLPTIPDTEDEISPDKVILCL
Sequence of IKZF1 protein (Q16531 whole entry partner): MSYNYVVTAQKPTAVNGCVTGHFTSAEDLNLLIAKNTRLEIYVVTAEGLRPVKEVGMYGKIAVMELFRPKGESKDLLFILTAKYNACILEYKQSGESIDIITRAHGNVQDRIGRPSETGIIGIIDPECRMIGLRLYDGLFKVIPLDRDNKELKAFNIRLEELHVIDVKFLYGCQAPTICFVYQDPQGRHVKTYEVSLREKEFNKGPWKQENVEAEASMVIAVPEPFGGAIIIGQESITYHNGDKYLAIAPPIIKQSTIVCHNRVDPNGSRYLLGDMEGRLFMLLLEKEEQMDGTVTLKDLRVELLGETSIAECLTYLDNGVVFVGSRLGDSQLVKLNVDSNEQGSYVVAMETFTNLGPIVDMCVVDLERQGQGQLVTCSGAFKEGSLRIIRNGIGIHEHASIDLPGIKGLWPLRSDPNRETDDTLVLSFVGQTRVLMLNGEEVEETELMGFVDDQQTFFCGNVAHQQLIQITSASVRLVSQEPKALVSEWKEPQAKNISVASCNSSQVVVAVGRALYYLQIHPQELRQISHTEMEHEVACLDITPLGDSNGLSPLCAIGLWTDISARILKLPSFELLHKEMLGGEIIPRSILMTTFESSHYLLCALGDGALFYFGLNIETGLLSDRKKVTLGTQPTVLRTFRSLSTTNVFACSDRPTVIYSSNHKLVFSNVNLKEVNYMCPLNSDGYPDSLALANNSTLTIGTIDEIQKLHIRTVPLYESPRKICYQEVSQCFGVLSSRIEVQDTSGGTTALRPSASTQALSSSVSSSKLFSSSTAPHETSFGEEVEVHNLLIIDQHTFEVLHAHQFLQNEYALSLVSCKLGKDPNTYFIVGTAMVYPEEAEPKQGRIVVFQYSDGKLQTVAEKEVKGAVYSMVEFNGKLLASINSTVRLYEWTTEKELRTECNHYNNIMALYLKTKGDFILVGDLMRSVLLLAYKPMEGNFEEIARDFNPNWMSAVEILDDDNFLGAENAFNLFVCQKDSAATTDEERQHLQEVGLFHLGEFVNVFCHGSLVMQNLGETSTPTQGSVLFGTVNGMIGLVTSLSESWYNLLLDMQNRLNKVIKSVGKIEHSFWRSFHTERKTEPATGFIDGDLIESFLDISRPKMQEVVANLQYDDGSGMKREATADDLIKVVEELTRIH

[4] = biological target: IKZF3 protein (Homo sapiens (Human), UniProt Q96SW2+Q9UKT9); assay: Western-blot assay of substrate protein degradation in hPBMC, IKZF3; type: cell-based; details: for residual substrate protein level, IKZF3: hPBMC cells, compound 500 nM, 24 hours, Western blot
Sequence of IKZF3 protein (Q9UKT9 whole entry): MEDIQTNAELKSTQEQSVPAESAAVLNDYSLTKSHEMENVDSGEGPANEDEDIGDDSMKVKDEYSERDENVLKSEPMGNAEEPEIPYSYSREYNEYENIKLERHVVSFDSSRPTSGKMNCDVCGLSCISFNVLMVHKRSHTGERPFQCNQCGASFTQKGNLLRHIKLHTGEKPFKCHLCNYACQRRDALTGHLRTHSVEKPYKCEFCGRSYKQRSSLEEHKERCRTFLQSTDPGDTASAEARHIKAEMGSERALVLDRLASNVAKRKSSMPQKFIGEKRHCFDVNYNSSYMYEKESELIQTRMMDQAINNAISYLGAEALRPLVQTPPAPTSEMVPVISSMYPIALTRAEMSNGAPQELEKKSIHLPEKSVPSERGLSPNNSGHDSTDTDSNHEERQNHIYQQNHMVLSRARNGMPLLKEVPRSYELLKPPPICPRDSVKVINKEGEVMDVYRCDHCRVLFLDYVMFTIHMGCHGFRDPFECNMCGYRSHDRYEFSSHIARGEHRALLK
Sequence of IKZF3 protein (Q96SW2 whole entry): as the sequence (Q96SW2 whole entry) above
Sequence of IKZF3 protein (Q16531 whole entry partner): as the sequence (Q16531 whole entry partner) above

[5] = biological target: GSPT1 protein (Homo sapiens (Human), UniProt P15170+Q96SW2); assay: Western-blot assay of substrate protein degradation in hPBMC, GSPT1; type: cell-based; details: for residual substrate protein level, GSPT1: hPBMC cells, compound 500 nM, 24 hours, Western blot
Sequence of GSPT1 protein (P15170 whole entry): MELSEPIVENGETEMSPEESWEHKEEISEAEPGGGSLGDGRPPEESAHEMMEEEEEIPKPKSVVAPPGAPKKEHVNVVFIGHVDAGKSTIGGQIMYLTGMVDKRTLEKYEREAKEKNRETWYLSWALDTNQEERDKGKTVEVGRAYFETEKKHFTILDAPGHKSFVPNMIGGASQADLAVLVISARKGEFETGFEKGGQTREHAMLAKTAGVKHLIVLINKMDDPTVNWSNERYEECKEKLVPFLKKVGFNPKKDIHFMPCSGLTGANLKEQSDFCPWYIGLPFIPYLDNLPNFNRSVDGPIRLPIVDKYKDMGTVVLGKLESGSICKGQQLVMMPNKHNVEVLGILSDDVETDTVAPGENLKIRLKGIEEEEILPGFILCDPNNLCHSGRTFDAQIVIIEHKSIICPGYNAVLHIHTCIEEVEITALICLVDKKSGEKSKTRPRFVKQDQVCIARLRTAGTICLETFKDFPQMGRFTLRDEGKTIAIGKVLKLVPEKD
Sequence of GSPT1 protein (Q96SW2 whole entry): as the sequence (Q96SW2 whole entry) above
Sequence of GSPT1 protein (Q16531 whole entry partner): as the sequence (Q16531 whole entry partner) above

[6] = hPBMC, 24 h, serially diluted 0.03-1000 nM

Sequence of human Cereblon WT GST-tagged protein (Q96SW2 whole entry): as the sequence (Q96SW2 whole entry) above

Row | SMILES | IC50 [1] [µM] | IC50 [2] [µM] | concentration at which significant degradation effects on IKZF1 protein are exhibited (FIG. 1) [3, 6] [nM] | concentration at which significant degradation effects on IKZF3 protein are exhibited (FIG. 1) [4, 6] [nM] | concentration at which significant degradation effects on GSPT1 protein are exhibited (FIG. 1) [5, 6] [nM] | residual substrate protein level, IKZF1 [3] | residual substrate protein level, IKZF3 [4] | residual substrate protein level, GSPT1 [5]
1 | O=C1CCC(N2Cc3cc(CN4CCN(Cc5cccc(-c6ccc(Cl)cc6)c5)CC4)ccc3C2=O)C(=O)N1 (stereo not shown) [GT-05629, 3-(5-((4-((4′-chloro-[1,1′-biphenyl]-3-yl)methyl)piperazin-1-yl)methyl)-1-oxoisoindolin-2-yl)piperidine-2,6-dione] | 1.28 | 0.1 to 0.5 |  |  |  |  |  | 
2 | O=C1CCC(N2Cc3cc(CN4CCN(Cc5cccc(-c6ccc(Cl)cn6)c5)CC4)ccc3C2=O)C(=O)N1 (stereo not shown) [GT-05596, 3-(5-((4-(3-(5-chloropyridin-2-yl)benzyl)piperazin-1-yl)methyl)-1-oxoisoindolin-2-yl)piperidine-2,6-dione] | 1.34 | 0.01 to 0.05 | < 3 | < 3 | < 3 | A (A represents a residual substrate protein level of <50%) | A (A represents a residual substrate protein level of <50%) | B (B represents a residual substrate protein level of >50%)
3 | O=C1CCC(N2C(=O)c3ccc(CN4CCN(Cc5cnc(-c6ccccc6)cn5)CC4)cc3C2=O)C(=O)N1 (stereo not shown) [GT-05545, 2-(2,6-dioxopiperidin-3-yl)-5-((4-((5-phenylpyrazin-2-yl)methyl)piperazin-1-yl)methyl)isoindoline-1,3-dione] |  | 0.5 to 1 |  |  |  | B (B represents a residual substrate protein level of >50%) | A (A represents a residual substrate protein level of <50%) | B (B represents a residual substrate protein level of >50%)
4 | O=C1CCC(N2Cc3cc(CN4CCN(Cc5ccc(-c6cccs6)o5)CC4)ccc3C2=O)C(=O)N1 (stereo not shown) [GT-05627, 3-(1-oxo-5-((4-((5-(thiophen-2-yl)furan-2-yl)methyl)piperazin-1-yl)methyl)isoindolin-2-yl)piperidine-2,6-dione] | 0.26 | 0.1 to 0.5 |  |  |  |  |  | 
5 | O=C1CCC(N2Cc3cc(CN4CCN(Cc5cccc(-c6cccs6)c5)CC4)ccc3C2=O)C(=O)N1 (stereo not shown) [GT-05597, 3-(1-oxo-5-((4-(3-(thiophen-2-yl)benzyl)piperazin-1-yl)methyl)isoindolin-2-yl)piperidine-2,6-dione] | 1.4 | 0.1 to 0.5 |  |  |  |  |  | 
6 | CC1(C)CCC(CN2CC3CCC2CN3Cc2ccc3c(c2)CN(C2CCC(=O)NC2=O)C3=O)=C(c2ccc(Cl)cc2)C1 (stereo not shown) [GT-04167, 3-(5-((5-((4′-chloro-5,5-dimethyl-3,4,5,6-tetrahydro-[1,1′-biphenyl]-2-yl)methyl)-2,5-diazabicyclo[2.2.2]octan-2-yl)methyl)-1-oxoisoindolin-2-yl)piperidine-2,6-dione] | 0.66 |  |  |  |  | B (B represents a residual substrate protein level of >50%) | B (B represents a residual substrate protein level of >50%) | B (B represents a residual substrate protein level of >50%)
7 | CC1(C)CCC(C(=O)N2C3CC2CN(Cc2ccc4c(c2)CN(C2CCC(=O)NC2=O)C4=O)C3)=C(c2ccc(F)cc2)C1 (stereo not shown) [GT-05515, 3-(5-((6-(4′-fluoro-5,5-dimethyl-3,4,5,6-tetrahydro-[1,1′-biphenyl]-2-carbonyl)-3,6-diazabicyclo[3.1.1]heptan-3-yl)methyl)-1-oxoisoindolin-2-yl)piperidine-2,6-dione] | 1.01 |  |  |  |  | B (B represents a residual substrate protein level of >50%) | B (B represents a residual substrate protein level of >50%) | A (A represents a residual substrate protein level of <50%)
8 | O=C1CCC(N2Cc3c(ccc(CN4CCN(C(=O)C5=C(c6ccc(F)cc6)CCCC5)CC4)c3F)C2=O)C(=O)N1 (stereo not shown) [GT-05472, 3-(4-fluoro-5-((4-(4′-fluoro-3,4,5,6-tetrahydro-[1,1′-biphenyl]-2-carbonyl)piperazin-1-yl)methyl)-1-oxoisoindolin-2-yl)piperidine-2,6-dione] | 1.12 |  |  |  |  | B (B represents a residual substrate protein level of >50%) | B (B represents a residual substrate protein level of >50%) | A (A represents a residual substrate protein level of <50%)
9 | CC1(C)CCC(CN2CCCN(Cc3ccc4c(c3)CN(C3CCC(=O)NC3=O)C4=O)CC2)=C(c2ccc(F)cc2)C1 (stereo not shown) [GT-05504, 3-(5-((4-((4′-fluoro-5,5-dimethyl-3,4,5,6-tetrahydro-[1,1′-biphenyl]-2-yl)methyl)-1,4-diazepan-1-yl)methyl)-1-oxoisoindolin-2-yl)piperidine-2,6-dione] | 0.73 |  |  |  |  | A (A represents a residual substrate protein level of <50%) | A (A represents a residual substrate protein level of <50%) | B (B represents a residual substrate protein level of >50%)
10 | O=C1CCC(N2Cc3cc(CN4CC5CN(Cc6ccccc6-c6ccc(Cl)cc6)CC5C4)ccc3C2=O)C(=O)N1 (stereo not shown) [GT-05613, 3-(5-((5-((4′-chloro-[1,1′-biphenyl]-2-yl)methyl)hexahydropyrrolo[3,4-c]pyrrol-2(1H)-yl)methyl)-1-oxoisoindolin-2-yl)piperidine-2,6-dione] | 0.59 |  |  |  |  | B (B represents a residual substrate protein level of >50%) | A (A represents a residual substrate protein level of <50%) | B (B represents a residual substrate protein level of >50%)
11 | O=C1CCC(N2Cc3cc(CN4CC5(CCN(Cc6ccccc6-c6ccc(Cl)cc6)CC5)C4)ccc3C2=O)C(=O)N1 (stereo not shown) [GT-05612, 3-(5-((7-((4′-chloro-[1,1′-biphenyl]-2-yl)methyl)-2,7-diazaspiro[3.5]nonan-2-yl)methyl)-1-oxoisoindolin-2-yl)piperidine-2,6-dione] | 0.65 |  |  |  |  | A (A represents a residual substrate protein level of <50%) | A (A represents a residual substrate protein level of <50%) | B (B represents a residual substrate protein level of >50%)

Continued, in another order:

Row | IC50 [1] [µM] | IC50 [2] [µM] | concentration at which significant degradation effects on IKZF1 protein are exhibited (FIG. 1) [3, 6] [nM] | concentration at which significant degradation effects on IKZF3 protein are exhibited (FIG. 1) [4, 6] [nM] | concentration at which significant degradation effects on GSPT1 protein are exhibited (FIG. 1) [5, 6] [nM] | SMILES | residual substrate protein level, IKZF1 [3] | residual substrate protein level, IKZF3 [4] | residual substrate protein level, GSPT1 [5]
12 | 0.47 | 0.1 to 0.5 |  |  |  | O=C1CCC(N2Cc3cc(CN4CCN(Cc5cccc(-c6ccco6)c5)CC4)ccc3C2=O)C(=O)N1 (stereo not shown) [GT-05692, 3-(5-((4-(3-(furan-2-yl)benzyl)piperazin-1-yl)methyl)-1-oxoisoindolin-2-yl)piperidine-2,6-dione] |  |  | 
13 |  | 0.5 to 1 |  |  |  | O=C1CCC(N2C(=O)c3ccc(CN4CCN(Cc5ccc(-c6ccncc6)nc5)CC4)cc3C2=O)C(=O)N1 (stereo not shown) [GT-05634, 5-((4-([2,4′-bipyridin]-5-ylmethyl)piperazin-1-yl)methyl)-2-(2,6-dioxopiperidin-3-yl)isoindoline-1,3-dione] | A (A represents a residual substrate protein level of <50%) | A (A represents a residual substrate protein level of <50%) | B (B represents a residual substrate protein level of >50%)
14 | 0.11 | 0.1 to 0.5 |  |  |  | O=C1CCC(N2Cc3cc(CN4CCN(Cc5ccc(-c6ccc[nH]6)cc5)CC4)ccc3C2=O)C(=O)N1 (stereo not shown) [GT-05734, 3-(5-((4-(4-(1H-pyrrol-2-yl)benzyl)piperazin-1-yl)methyl)-1-oxoisoindolin-2-yl)piperidine-2,6-dione] | B (B represents a residual substrate protein level of >50%) | A (A represents a residual substrate protein level of <50%) | B (B represents a residual substrate protein level of >50%)
15 | 0.25 | 0.1 to 0.5 |  |  |  | O=C1CCC(N2Cc3cc(CN4CCN(Cc5ccc(-c6ccco6)o5)CC4)ccc3C2=O)C(=O)N1 (stereo not shown) [GT-05695, 3-(5-((4-([2,2′-bifuran]-5-ylmethyl)piperazin-1-yl)methyl)-1-oxoisoindolin-2-yl)piperidine-2,6-dione] | A (A represents a residual substrate protein level of <50%) | A (A represents a residual substrate protein level of <50%) | B (B represents a residual substrate protein level of >50%)
16 | 1.16 | 0.1 to 0.5 |  |  |  | CC1(C)CCC(CN2CC3(C2)CN(Cc2ccc4c(c2)CN(C2CCC(=O)NC2=O)C4=O)C3)=C(c2ccc(Cl)cc2)C1 (stereo not shown) [GT-05685, 3-(5-((6-((4′-chloro-5,5-dimethyl-3,4,5,6-tetrahydro-[1,1′-biphenyl]-2-yl)methyl)-2,6-diazaspiro[3.3]heptan-2-yl)methyl)-1-oxoisoindolin-2-yl)piperidine-2,6-dione] |  |  | 
17 | 1.17 |  |  |  |  | CC1(C)CCC(C(=O)N2CCC3(CC2)CN(C(=O)c2ccc4c(c2)CN(C2CCC(=O)NC2=O)C4=O)C3)=C(c2ccc(Cl)cc2)C1 (stereo not shown) [GT-05657, 3-(5-(7-(4′-chloro-5,5-dimethyl-3,4,5,6-tetrahydro-[1,1′-biphenyl]-2-carbonyl)-2,7-diazaspiro[3.5]nonane-2-carbonyl)-1-oxoisoindolin-2-yl)piperidine-2,6-dione] | B (B represents a residual substrate protein level of >50%) | B (B represents a residual substrate protein level of >50%) | B (B represents a residual substrate protein level of >50%)
